Assay results taken from paper PMC10490123, “Synthesis and In Vitro Anticancer Activity of Novel 4-Aryl-3-(4-methoxyphenyl)-1-phenyl-1H-pyrazolo[3,4-b]pyridines Arrest Cell Cycle and Induce Cell Apoptosis by Inhibiting CDK2 and/or CDK9” (Molecules, 2023).
“Also recorded” adds a separate entry of the source.

Legend:
[1] = target: T1, CDK9 (Homo sapiens, UniProt P50750); assay: In vitro CDK9 enzyme inhibition assay (BPS Bioscience kit, chemiluminescence); type: biochemical
T1 construct: purchased BPS Bioscience
T1 sequence (P50750 whole entry): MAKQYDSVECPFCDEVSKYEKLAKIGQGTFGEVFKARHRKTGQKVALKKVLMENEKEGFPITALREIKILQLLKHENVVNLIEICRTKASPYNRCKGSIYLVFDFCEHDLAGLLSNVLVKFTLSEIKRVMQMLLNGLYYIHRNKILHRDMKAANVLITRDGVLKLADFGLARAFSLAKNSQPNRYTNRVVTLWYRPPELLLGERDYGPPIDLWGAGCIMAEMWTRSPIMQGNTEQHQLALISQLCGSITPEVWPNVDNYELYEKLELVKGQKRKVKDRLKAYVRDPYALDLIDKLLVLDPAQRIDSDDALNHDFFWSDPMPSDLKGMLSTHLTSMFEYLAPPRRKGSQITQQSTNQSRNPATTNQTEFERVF
T1 sequence (O60563 whole entry partner): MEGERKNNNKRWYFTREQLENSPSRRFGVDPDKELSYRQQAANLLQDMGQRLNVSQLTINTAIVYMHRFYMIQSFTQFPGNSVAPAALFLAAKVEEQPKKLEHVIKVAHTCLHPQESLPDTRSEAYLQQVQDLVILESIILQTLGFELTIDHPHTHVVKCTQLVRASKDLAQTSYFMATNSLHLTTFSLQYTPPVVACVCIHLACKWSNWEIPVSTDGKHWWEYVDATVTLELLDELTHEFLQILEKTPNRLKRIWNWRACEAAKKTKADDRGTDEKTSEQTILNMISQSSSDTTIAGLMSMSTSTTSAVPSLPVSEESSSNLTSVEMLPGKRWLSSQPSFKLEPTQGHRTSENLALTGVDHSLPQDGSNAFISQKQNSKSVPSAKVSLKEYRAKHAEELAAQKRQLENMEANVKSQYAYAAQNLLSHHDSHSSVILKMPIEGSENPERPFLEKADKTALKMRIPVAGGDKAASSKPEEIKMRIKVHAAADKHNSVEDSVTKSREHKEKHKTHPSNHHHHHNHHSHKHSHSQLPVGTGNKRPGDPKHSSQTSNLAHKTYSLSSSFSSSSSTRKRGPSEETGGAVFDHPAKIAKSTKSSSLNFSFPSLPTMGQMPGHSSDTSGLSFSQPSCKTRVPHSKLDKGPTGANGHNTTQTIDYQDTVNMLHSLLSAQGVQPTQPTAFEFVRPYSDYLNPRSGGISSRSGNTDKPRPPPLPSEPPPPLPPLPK
Procedure: (§1) The CDK in vitro inhibitory activity of 9a–h and 14a–h toward CDK2 and CDK9 was performed using CDK Assay Kit (BPS Bioscience, USA) at different dilutions of 30, 10, 3, 1, 0.3, 0.1, 0.03, and 0.01 µM, measuring the chemiluminescence using BioTek™ Synergy2 Microplate Reader (BioTek, Santa Clara, CA, USA).

[2] = MTT cytotoxicity on normal cell line WI-38; type: cell-based; details: human, WI-38 normal cells, MTT assay, mean ± SD of three experiments, read-out: In Vitro Cytotoxicity on WI-38 (IC50)
[3] = tested on: Hela cells; assay: Annexin V/PI apoptosis assay, Hela; type: cell-based; details: IC50 concentration, 24 h
Procedure: An apoptotic assay using Annexin V/PI analysis for compounds 9a and 14g is evaluated. Compound 9a induced a significant level of early and late apoptosis (total = 42.19) in the Hela cell line when compared with the control cells (Table 3, Figure 5 and Figure 6).

[4] = target: T2, CDK2 (Homo sapiens, UniProt P24941); assay: In vitro CDK2 enzyme inhibition assay (BPS Bioscience kit, chemiluminescence); type: biochemical
T2 construct: purchased BPS Bioscience
Procedure: as §1

[5] = tested on: Hela cancer cell line; assay: MTT cytotoxicity assay, cervical cancer Hela; type: cell-based; details: Homo sapiens, mean ± SD of three experiments
Procedure: (§2) The cytotoxicity of compounds 9a–h and 14a–h against three cell lines, namely, cervical cancer Hela, breast cancer MCF7, and colon HCT-116, compared with doxorubicin as a reference compound was performed using MTT assay. The cytotoxic concentration (IC50 in µM) is illustrated in Table 1.
(§3) Standard MTT colorimetric assay was applied to test the IC50 of compounds 9a–h and 14a–h against three cell lines, namely, cervical cancer Hela, breast cancer MCF7, and colon HCT-116, compared with doxorubicin as a reference compound with the typical reported methodology of MTT colorimetric assay.

[6] = tested on: HCT-116 cancer cell line; assay: MTT cytotoxicity assay, colon HCT-116; type: cell-based; details: Homo sapiens, mean ± SD of three experiments, read-out: IC50 HCT116
Procedure: as §2, §3

[7] = tested on: MCF7 cancer cell line; assay: MTT cytotoxicity assay, breast cancer MCF7; type: cell-based; details: Homo sapiens, mean ± SD of three experiments
Procedure: as §2, §3

[8] = tested on: Hela cells; assay: Cell cycle analysis (PI flow cytometry), Hela; type: cell-based
Procedure: (§4) Cell cycle arrest of cervical cancer cells Hela, breast cancer cells MCF7, and colon cancer cells HCT-116 were assessed for compounds 9a and 14g at their IC50.

[9] = tested on: HCT-116 cells; assay: Annexin V/PI apoptosis assay, HCT-116; type: cell-based; details: HCT-116, IC50 concentration, 24 h
[10] = tested on: MCF7 cells; assay: Cell cycle analysis (PI flow cytometry), MCF7; type: cell-based
Procedure: as §4

[11] = tested on: HCT-116 cells; assay: Cell cycle analysis (PI flow cytometry), HCT-116; type: cell-based; details: HCT-116, compound at its IC50
Procedure: as §4

[12] = tested on: MCF7 cells; assay: Annexin V/PI apoptosis assay, MCF7; type: cell-based; details: MCF7, IC50 concentration, 24 h

melting point [°C]	Structure (SMILES)	IC50 [5] [µM]	IC50 [6] [µM]	IC50 [7] [µM]	other results
229 to 231	COc1ccc(-c2nn(-c3ccccc3)c3nc(-c4ccccc4)c(C#N)c(-c4ccccc4)c23)cc1 [Compound 14a, 3-(4-Methoxyphenyl)-1,4,6-triphenyl-1H-pyrazolo[3,4-b]pyridine-5-carbonitrile]	23.1 ± 1.63	25.8 ± 2.58	20.7 ± 1.73	
203 to 205	COc1ccc(-c2nn(-c3ccccc3)c3nc(-c4ccccc4)c(C#N)c(-c4ccc(C)cc4)c23)cc1 [Compound 14b, 3-(4-Methoxyphenyl)-1,6-diphenyl-4-(p-tolyl)-1H-pyrazolo[3,4-b]pyridine-5-carbonitrile]	21 ± 2.18	36.3 ± 1.83	21.4 ± 2.05	
207 to 209	COc1ccc(-c2nn(-c3ccccc3)c3nc(-c4ccccc4)c(C#N)c(-c4ccc(OC)cc4)c23)cc1 [Compound 14c, 3,4-Bis(4-methoxyphenyl)-1,6-diphenyl-1H-pyrazolo[3,4-b]pyridine-5-carbonitrile]	41.3 ± 2.79	36.7 ± 2.02	39.3 ± 3.74	
258 to 260	COc1ccc(-c2nn(-c3ccccc3)c3nc(-c4ccccc4)c(C#N)c(-c4ccc(Cl)cc4)c23)cc1 [Compound 14d, 4-(4-Chlorophenyl)-3-(4-methoxyphenyl)-1,6-diphenyl-1H-pyrazolo[3,4-b]pyridine-5-carbonitrile]	21.1 ± 2.03	31.1 ± 3.54	37.2 ± 2.48	
221 to 223	COc1ccc(-c2nn(-c3ccccc3)c3nc(-c4ccccc4)c(C#N)c(-c4ccc(Br)cc4)c23)cc1 [Compound 14e, 4-(4-Bromophenyl)-3-(4-methoxyphenyl)-1,6-diphenyl-1H-pyrazolo[3,4-b]pyridine-5-carbonitrile]	37.3 ± 3.32	37.8 ± 2.63	34.4 ± 2.59	
230 to 232	COc1ccc(-c2nn(-c3ccccc3)c3nc(-c4ccccc4)c(C#N)c(-c4ccc(N(C)C)cc4)c23)cc1 [Compound 14f, 4-(4-(Dimethylamino)phenyl)-3-(4-methoxyphenyl)-1,6-diphenyl-1H-pyrazolo[3,4-b]pyridine-5-carbonitrile]	46.1 ± 3.7	40 ± 4.32	19.6 ± 1.26	
295 to 297	COc1ccc(-c2nn(-c3ccccc3)c3nc(-c4ccccc4)c(C#N)c(-c4ccc(O)cc4)c23)cc1 [Compound 14g, 4-(4-Hydroxyphenyl)-3-(4-methoxyphenyl)-1,6-diphenyl-1H-pyrazolo[3,4-b]pyridine-5-carbonitrile]	12.7 ± 1.53	1.98 ± 0.17	4.66 ± 0.38	IC50 [1]: 0.801 ± 0.041 µM; Apoptosis Late ([9]; control 0.19): 6.95%; Apoptosis Early ([9]; control 0.63): 16.01%; Necrosis ([9]; control 1.69): 3.75%; Apoptosis Total ([9]; total equals early + late + necrosis, control 2.51): 26.71%; IC50 [2]: 21.8 ± 2.96 µM; Cell cycle Comment ([10]; MCF7, compound at its IC50): arresting cell cycle for MCF7 at G2/M phase; also recorded: cell growth arrest@ G2/M; DNA Content %G2/M ([10]; MCF7, compound at its IC50, control 14.86): 24.94%; DNA Content %S ([10]; MCF7, compound at its IC50, control 39.02): 33.81%; DNA Content %G0-G1 ([10]; MCF7, compound at its IC50, control 46.12): 41.25%; DNA accumulation at G2/M phase relative to control ([10]; MCF7, control 14.86%): 1.68 fold; IC50 [4]: 0.46 ± 0.024 µM; Cell cycle Comment [11]: arresting cell cycle at S phase; also recorded: cell growth arrest@ S; DNA Content %G2/M ([11]; control 17.64): 13.24%; DNA Content %S ([11]; control 26.49): 34.82%; DNA Content %G0-G1 ([11]; control 55.87): 51.94%; Apoptosis Late ([12]; control 0.27): 7.55%; Apoptosis Early ([12]; control 0.44): 13.07%; Necrosis ([12]; control 0.78): 2.27%; Apoptosis Total ([12]; total equals early + late + necrosis, control 1.49): 22.89%
212 to 214	COc1ccc(-c2nn(-c3ccccc3)c3nc(-c4ccccc4)c(C#N)c(-c4ccc(OC)c(OC)c4)c23)cc1 [Compound 14h, 4-(3,4-Dimethoxyphenyl)-3-(4-methoxyphenyl)-1,6-diphenyl-1H-pyrazolo[3,4-b]pyridine-5-carbonitrile]	31.7 ± 2.48	3.69 ± 0.11	38.1 ± 2.76	

Further lines, the molecule ahead of its results:

Structure (SMILES)	melting point [°C]	IC50 [5] [µM]	IC50 [6] [µM]	IC50 [7] [µM]	other results
COc1ccc(-c2nn(-c3ccccc3)c3nccc(-c4ccccc4)c23)cc1 [Compound 9a, 3-(4-Methoxyphenyl)-1,4-diphenyl-1H-pyrazolo[3,4-b]pyridine]	161 to 163	2.59 ± 0.16	15.3 ± 1.46	6.39 ± 0.46	IC50 [1]: 0.262 ± 0.013 µM; IC50 [2]: 26.4 ± 3.23 µM; Apoptosis Late ([3]; control 0.12): 12.82%; Apoptosis Early ([3]; control 0.49): 23.21%; Necrosis ([3]; control 1.72): 6.16%; Apoptosis Total ([3]; total equals early + late + necrosis, control 2.33, % printed in Figure 6 only): 42.19%; IC50 [4]: 1.63 ± 0.009 µM; Cell cycle Comment ([8]; compound at its IC50): cell cycle arrest at the S phase; also recorded: cell growth arrest@ S; DNA Content %G2/M ([8]; compound at its IC50, control 14.5): 11.36%; DNA Content %S ([8]; compound at its IC50, control 24.11): 29.54%; DNA Content %G0-G1 ([8]; compound at its IC50, control 61.39): 59.1%; cell accumulation at S phase relative to control ([8]; control 24.11%): 1.23 fold
COc1ccc(-c2nn(-c3ccccc3)c3nccc(-c4ccc(C)cc4)c23)cc1 [Compound 9b, 3-(4-Methoxyphenyl)-1-phenyl-4-(p-tolyl)-1H-pyrazolo[3,4-b]pyridine]	186 to 188	14 ± 1.25	18 ± 1.16	22.4 ± 3.18	
COc1ccc(-c2ccnc3c2c(-c2ccc(OC)cc2)nn3-c2ccccc2)cc1 [Compound 9c, 3,4-Bis(4-methoxyphenyl)-1-phenyl-1H-pyrazolo[3,4-b]pyridine]	198 to 200	26.6 ± 3.37	43.2 ± 3.26	59 ± 5.52	
COc1ccc(-c2nn(-c3ccccc3)c3nccc(-c4ccc(F)cc4)c23)cc1 [Compound 9d, 4-(4-Fluorophenyl)-3-(4-methoxyphenyl)-1-phenyl-1H-pyrazolo[3,4-b]pyridine]	171 to 173	19.6 ± 1.68	17.5 ± 0.98	13 ± 1.33	
COc1ccc(-c2nn(-c3ccccc3)c3nccc(-c4ccc(Cl)cc4)c23)cc1 [Compound 9e, 4-(4-Chlorophenyl)-3-(4-methoxyphenyl)-1-phenyl-1H-pyrazolo[3,4-b]pyridine]	210 to 212	48.5 ± 4.2	16.6 ± 1.34	20.3 ± 3.21	
COc1ccc(-c2nn(-c3ccccc3)c3nccc(-c4ccc(Br)cc4)c23)cc1 [Compound 9f, 4-(4-Bromophenyl)-3-(4-methoxyphenyl)-1-phenyl-1H-pyrazolo[3,4-b]pyridine]	217 to 219	20.4 ± 1.74	16.8 ± 0.76	35.6 ± 4.64	
COc1ccc(-c2nn(-c3ccccc3)c3nccc(-c4ccc([N+](=O)[O-])cc4)c23)cc1 [Compound 9g, 3-(4-Methoxyphenyl)-4-(4-nitrophenyl)-1-phenyl-1H-pyrazolo[3,4-b]pyridine]	> 300	28.3 ± 4.23	40 ± 3.19	26.3 ± 2.85	
COc1ccc(-c2nn(-c3ccccc3)c3nccc(-c4ccc(OC)c(OC)c4)c23)cc1 [Compound 9h, 4-(3,4-Dimethoxyphenyl)-3-(4-methoxyphenyl)-1-phenyl-1H-pyrazolo[3,4-b]pyridine]	165 to 167	7.92 ± 1.11	9.69 ± 0.56	9.7 ± 1	
COc1cccc2c1C(=O)c1c(O)c3c(c(O)c1C2=O)C[C@@](O)(C(=O)CO)C[C@@H]3O[C@H]1C[C@H](N)[C@H](O)[C@H](C)O1 [Doxorubicin, reference compound]		2.35 ± 0.08	2.11 ± 0.2	4.57 ± 0.28	IC50 [2]: 15.6 ± 0.37 µM
